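Each compound was tested at five concentrations against cells in 96-well plates for 48 hours. Here, GI50 denotes the concentration required for 50% inhibition of growth.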 The source made the active and inactive calls. Cut-off read from the data, not from the text of the source: active = GI50 up to about 1.1 µM and inactive = higher.
How the values were obtained:
Assay in all cases: NCI tumour cell line growth inhibition, 48 h
A549 = system: A549
ACHN = system: ACHN
CAKI-1 = system: CAKI-1
COLO 205 = system: COLO 205
EKVX = system: EKVX
HL-60 = system: HL-60
HOP-62 = system: HOP-62
HOP-92 = system: HOP-92
K562 = system: K562
KM12 = system: KM12
LOX IMVI = system: LOX IMVI
Malme-3M = system: Malme-3M
NCI-H23 = system: NCI-H23
NCI-H460 = system: NCI-H460
NCI/ADR-RES = system: NCI/ADR-RES
OVCAR-4 = system: OVCAR-4
SN12C = system: SN12C
SW-620 = system: SW-620
UACC-257 = system: UACC-257

SMILES | GI50 (A549) | GI50 (ACHN) | GI50 (CAKI-1) | GI50 (COLO 205) | GI50 (EKVX) | GI50 (HL-60) | GI50 (HOP-62) | GI50 (HOP-92) | GI50 (K562) | GI50 (KM12) | GI50 (LOX IMVI) | GI50 (Malme-3M) | GI50 (NCI-H23) | GI50 (NCI-H460) | GI50 (NCI/ADR-RES) | GI50 (OVCAR-4) | GI50 (SN12C) | GI50 (SW-620) | GI50 (UACC-257)
Cn1cnc([N+](=O)[O-])c1Sc1nc(N)nc2c1ncn2[C@H]1C[C@H](O)[C@@H](CO)O1 | 4.63 µM (inactive) | 3.52 µM (inactive) | 4.05 µM (inactive) | 4.63 µM (inactive) | 9.18 µM (inactive) | 4.86 µM (inactive) | 0.971 µM (active) | 17.3 µM (inactive) | 2.71 µM (inactive) | 2.77 µM (inactive) | 0.434 µM (active) | 5.26 µM (inactive) | 3.91 µM (inactive) | 1.03 µM (active) | 1.28 µM (inactive) | 2.99 µM (inactive) | 5.16 µM (inactive) | 6.5 µM (inactive) | 8.32 µM (inactive)
Cc1ccc(C(=N)Nc2ccccc2)cc1 | > 100 µM (inactive) | > 100 µM (inactive) | > 100 µM (inactive) | 20.9 µM (inactive) | > 100 µM (inactive) | > 100 µM (inactive) | > 100 µM (inactive) | > 100 µM (inactive) | > 100 µM (inactive) | > 100 µM (inactive) | > 100 µM (inactive) | > 100 µM (inactive) | > 100 µM (inactive) | > 100 µM (inactive) | > 100 µM (inactive) | > 100 µM (inactive) | > 100 µM (inactive) | > 100 µM (inactive) | 38 µM (inactive)
O=C(Cn1c(-c2ccccc2)cc2ccccc21)N1CCOCC1 | > 100 µM (inactive) | > 100 µM (inactive) | > 100 µM (inactive) | > 100 µM (inactive) | > 100 µM (inactive) | > 100 µM (inactive) | 32.7 µM (inactive) | > 100 µM (inactive) | > 100 µM (inactive) | > 100 µM (inactive) | > 100 µM (inactive) | > 100 µM (inactive) | > 100 µM (inactive) | > 100 µM (inactive) | > 100 µM (inactive) | > 100 µM (inactive) | > 100 µM (inactive) | > 100 µM (inactive) | > 100 µM (inactive)
Clc1ccc(Cl)c(SCCCN2CCNCC2)c1 | 20.6 µM (inactive) | 15.1 µM (inactive) | 17.8 µM (inactive) | 16.2 µM (inactive) | 16.9 µM (inactive) | 14.2 µM (inactive) | 18 µM (inactive) | 15 µM (inactive) | 14.6 µM (inactive) | 25.5 µM (inactive) | 14.9 µM (inactive) | 15.8 µM (inactive) | 19.4 µM (inactive) | 18.4 µM (inactive) | 17.3 µM (inactive) | 20.6 µM (inactive) | 19.2 µM (inactive) | 22.3 µM (inactive) | 11.7 µM (inactive)
COc1ccc(NC(C)=O)cc1C1CCC(=O)N1 (stereo unspecified) | > 100 µM (inactive) | > 100 µM (inactive) | > 100 µM (inactive) | > 100 µM (inactive) | > 100 µM (inactive) | > 100 µM (inactive) | > 100 µM (inactive) | > 100 µM (inactive) | > 100 µM (inactive) | > 100 µM (inactive) | > 100 µM (inactive) | > 100 µM (inactive) | > 100 µM (inactive) | > 100 µM (inactive) | > 100 µM (inactive) | > 100 µM (inactive) | > 100 µM (inactive) | > 100 µM (inactive) | > 100 µM (inactive)
NC1CC(=O)c2c(Cl)sc(Cl)c21 (stereo unspecified) | 12.7 µM (inactive) | 2.33 µM (inactive) | 2.7 µM (inactive) | 1.63 µM (inactive) | 2 µM (inactive) | 1.6 µM (inactive) | 10.7 µM (inactive) | 1.47 µM (inactive) | 2.03 µM (inactive) | 3.06 µM (inactive) | 1.51 µM (inactive) | 2.22 µM (inactive) | 10.5 µM (inactive) | 14.5 µM (inactive) | 15 µM (inactive) | 6.44 µM (inactive) | 2.05 µM (inactive) | 1.68 µM (inactive) | 3.16 µM (inactive)
COc1ccc(-n2c3c(c4cc(O)ccc42)C(=O)c2ccccc2C3=O)cc1 | 11.7 µM (inactive) | 0.682 µM (active) | 95.7 µM (inactive) | 80.5 µM (inactive) | 4.74 µM (inactive) | 15 µM (inactive) | 2.26 µM (inactive) | 16.9 µM (inactive) | 30.7 µM (inactive) | 2.13 µM (inactive) | 4.71 µM (inactive) | 36.2 µM (inactive) | 8.97 µM (inactive) | 3.97 µM (inactive) | 4.61 µM (inactive) | 17.4 µM (inactive) | 2.3 µM (inactive) | > 100 µM (inactive) | > 100 µM (inactive)
CC(/C=C/c1ccc([N+](=O)[O-])o1)=N/N1CC(CN2CCOCC2)OC1=O (stereo unspecified) | 26.8 µM (inactive) | 16.6 µM (inactive) | 19.4 µM (inactive) | 16.3 µM (inactive) | 30.9 µM (inactive) | 25.3 µM (inactive) | 26.9 µM (inactive) | 13.6 µM (inactive) | 16.9 µM (inactive) | 42.8 µM (inactive) | 24.9 µM (inactive) | 14.7 µM (inactive) | 20.7 µM (inactive) | 21.5 µM (inactive) | 30.2 µM (inactive) | 14 µM (inactive) | 25.4 µM (inactive) | 30.2 µM (inactive) | 17.5 µM (inactive)
N=C(N)NS(=O)(=O)c1ccc(NC(=O)c2ccc3nc4ccccc4c(Nc4ccc(S(N)(=O)=O)cc4)c3c2)cc1 | > 100 µM (inactive) | > 100 µM (inactive) | > 100 µM (inactive) | > 100 µM (inactive) | > 100 µM (inactive) | > 100 µM (inactive) | > 100 µM (inactive) | > 100 µM (inactive) | > 100 µM (inactive) | > 100 µM (inactive) | > 100 µM (inactive) | > 100 µM (inactive) | > 100 µM (inactive) | > 100 µM (inactive) | > 100 µM (inactive) | > 100 µM (inactive) | > 100 µM (inactive) | > 100 µM (inactive) | > 100 µM (inactive)
c1ccc2c(c1)N=c1cc3c(cc1N2)=NC12CCCCC1CC1=C(CCCC1)N32 (stereo unspecified) | 3.61 µM (inactive) | 2.81 µM (inactive) | 6.58 µM (inactive) | 1.79 µM (inactive) | 4.53 µM (inactive) | 3.04 µM (inactive) | 6.53 µM (inactive) | 4.46 µM (inactive) | 2.2 µM (inactive) | 2.37 µM (inactive) | 3.57 µM (inactive) | 2.17 µM (inactive) | 4.56 µM (inactive) | 6.17 µM (inactive) | 4.57 µM (inactive) | 2.15 µM (inactive) | 2.36 µM (inactive) | 5.47 µM (inactive) | 2.03 µM (inactive)
CC(CCOc1c2ccoc2cc2oc(=O)ccc12)C1=CC(=O)C(C)(C)O1 (stereo unspecified) | > 100 µM (inactive) | > 100 µM (inactive) | > 100 µM (inactive) | > 100 µM (inactive) | > 100 µM (inactive) | > 100 µM (inactive) | > 100 µM (inactive) | > 100 µM (inactive) | > 100 µM (inactive) | > 100 µM (inactive) | > 100 µM (inactive) | > 100 µM (inactive) | > 100 µM (inactive) | > 100 µM (inactive) | > 100 µM (inactive) | 42 µM (inactive) | > 100 µM (inactive) | > 100 µM (inactive) | > 100 µM (inactive)
CN(C)CCCNC(=O)c1c(O)c2ccccc2n(C)c1=O | 82.2 µM (inactive) | 43.8 µM (inactive) | 41.4 µM (inactive) | 39.5 µM (inactive) | > 100 µM (inactive) | 36.5 µM (inactive) | 36.3 µM (inactive) | 14.3 µM (inactive) | 79.3 µM (inactive) | > 100 µM (inactive) | 30.6 µM (inactive) | 72.4 µM (inactive) | > 100 µM (inactive) | 42 µM (inactive) | 41.2 µM (inactive) | 78.3 µM (inactive) | 67.1 µM (inactive) | 54 µM (inactive) | 67.5 µM (inactive)
C=CN(C=C)C(=O)Cn1cc(-c2ccccc2)nn1 | > 100 µM (inactive) | > 100 µM (inactive) | > 100 µM (inactive) | > 100 µM (inactive) | > 100 µM (inactive) | > 100 µM (inactive) | > 100 µM (inactive) | > 100 µM (inactive) | > 100 µM (inactive) | > 100 µM (inactive) | > 100 µM (inactive) | > 100 µM (inactive) | > 100 µM (inactive) | > 100 µM (inactive) | > 100 µM (inactive) | 31.1 µM (inactive) | > 100 µM (inactive) | > 100 µM (inactive) | > 100 µM (inactive)
O=S(=O)(O)c1ccc(/N=N/c2c(O)ccc3ccccc23)cc1 | > 100 µM (inactive) | > 100 µM (inactive) | > 100 µM (inactive) | > 100 µM (inactive) | > 100 µM (inactive) | > 100 µM (inactive) | > 100 µM (inactive) | > 69.8 µM (inactive) | > 100 µM (inactive) | > 100 µM (inactive) | > 100 µM (inactive) | 4.58 µM (inactive) | > 100 µM (inactive) | > 100 µM (inactive) | > 100 µM (inactive) | > 100 µM (inactive) | > 100 µM (inactive) | > 100 µM (inactive) | > 100 µM (inactive)

Source: ChEMBL document CHEMBL1201862, “PubChem BioAssay data set” (2004)
